In ChEMBL document CHEMBL1201862, “PubChem BioAssay data set” (2004):
Activity calls are given as the source filed them.

How the values were obtained:
SRSF protein kinase 1 = SRSF protein kinase 1 (Homo sapiens, UniProt Q96SB4); format: functional;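 further: measured as one member of a kinome-wide kinase profiling panel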
[1] = molecular target: Serine/threonine-protein kinase PAK 1 (Homo sapiens, UniProt Q13153); format: functional
[2] = molecular target: Interleukin-1 receptor-associated kinase 4 (Homo sapiens, UniProt Q9NWZ3); format: functional
DNA topoisomerase = DNA topoisomerase (Yersinia pestis, UniProt A0A2S9PM60); test: Yersinia topoisomerase I cleavage product accumulation – biochemical, cherry-pick, dose response (AID 588525)
Chain of DNA topoisomerase (A0A2S9PM60 whole entry): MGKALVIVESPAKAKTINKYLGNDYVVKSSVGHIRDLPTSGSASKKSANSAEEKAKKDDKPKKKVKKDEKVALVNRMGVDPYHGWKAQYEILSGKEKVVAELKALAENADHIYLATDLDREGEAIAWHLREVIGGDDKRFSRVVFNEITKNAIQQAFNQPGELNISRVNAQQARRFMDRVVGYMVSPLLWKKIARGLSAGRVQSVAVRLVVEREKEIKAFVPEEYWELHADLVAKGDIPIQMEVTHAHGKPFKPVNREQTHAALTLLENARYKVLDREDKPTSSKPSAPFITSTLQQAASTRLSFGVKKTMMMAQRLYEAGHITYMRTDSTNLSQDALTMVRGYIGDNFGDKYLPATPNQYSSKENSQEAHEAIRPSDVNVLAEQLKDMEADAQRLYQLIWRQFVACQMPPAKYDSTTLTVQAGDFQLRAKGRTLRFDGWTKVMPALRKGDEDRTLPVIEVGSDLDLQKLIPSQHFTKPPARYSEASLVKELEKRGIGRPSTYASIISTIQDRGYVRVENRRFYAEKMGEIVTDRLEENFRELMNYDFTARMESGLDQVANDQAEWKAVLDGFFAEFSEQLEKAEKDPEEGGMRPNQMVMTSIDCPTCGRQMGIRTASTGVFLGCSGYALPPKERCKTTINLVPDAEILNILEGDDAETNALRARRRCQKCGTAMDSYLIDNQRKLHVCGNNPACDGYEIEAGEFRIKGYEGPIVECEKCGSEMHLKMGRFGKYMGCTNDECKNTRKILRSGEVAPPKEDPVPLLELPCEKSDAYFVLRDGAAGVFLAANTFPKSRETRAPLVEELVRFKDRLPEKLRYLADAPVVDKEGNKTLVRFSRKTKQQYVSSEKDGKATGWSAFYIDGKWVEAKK

INS1 = test: INS-1E mitochondrial potential rescue under cytokines – cell-based, JC-1 fluorescence ratio, dry powder, dose response (AID 488931); format: functional; details: Rattus norvegicus
[3] = molecular target: Glycogen synthase kinase-3 beta (Homo sapiens, UniProt P49841); test: Inhibition of Human GSK-3 beta Activity Measured in Biochemical System Using Microfluidics - 2063-05_Inhibitor_Dose_DryPowder_Activity. [Related pubchem assays (depositor defined):AID2709]
Chain of Glycogen synthase kinase-3 beta (P49841 whole entry): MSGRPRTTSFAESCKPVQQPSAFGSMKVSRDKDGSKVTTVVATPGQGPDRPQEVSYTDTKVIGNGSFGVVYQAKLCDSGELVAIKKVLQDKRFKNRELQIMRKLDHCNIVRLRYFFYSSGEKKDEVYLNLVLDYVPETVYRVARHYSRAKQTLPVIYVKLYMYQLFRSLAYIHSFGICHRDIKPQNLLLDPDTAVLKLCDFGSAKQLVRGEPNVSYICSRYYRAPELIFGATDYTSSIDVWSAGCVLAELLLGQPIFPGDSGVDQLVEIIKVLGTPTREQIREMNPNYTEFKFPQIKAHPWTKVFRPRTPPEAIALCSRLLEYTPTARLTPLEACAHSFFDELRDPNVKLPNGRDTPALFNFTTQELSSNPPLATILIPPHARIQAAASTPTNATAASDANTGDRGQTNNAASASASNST

[4] = molecular target: Glycogen synthase kinase-3 alpha (Homo sapiens, UniProt P49840); test: Inhibition of Human GSK-3 alpha Activity Measured in Biochemical System Using Microfluidics - 2063-06_Inhibitor_Dose_DryPowder_Activity. [Related pubchem assays (depositor defined):AID2709]
SUMO-activating enzyme [5] = molecular target: T1, SUMO-activating enzyme (Homo sapiens, UniProt Q9UBT2); test: blockers of UBC9-mediated SUMO conjugation – biochemical, AlphaScreen, SUMOylation inhibitor project, confirmation (AID 2018); format: functional
T1 sequence (Q9UBE0 whole entry): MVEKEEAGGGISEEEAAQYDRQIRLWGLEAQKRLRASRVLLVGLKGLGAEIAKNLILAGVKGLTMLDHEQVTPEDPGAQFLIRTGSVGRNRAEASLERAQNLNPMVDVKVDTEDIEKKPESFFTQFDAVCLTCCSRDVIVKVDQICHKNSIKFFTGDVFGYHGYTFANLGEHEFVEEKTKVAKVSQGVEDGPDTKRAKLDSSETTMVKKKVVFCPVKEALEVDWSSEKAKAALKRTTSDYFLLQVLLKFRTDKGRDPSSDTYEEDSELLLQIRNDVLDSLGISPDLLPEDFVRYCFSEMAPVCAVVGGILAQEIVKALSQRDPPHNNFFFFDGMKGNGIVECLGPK
T1 sequence (Q9UBT2 whole entry): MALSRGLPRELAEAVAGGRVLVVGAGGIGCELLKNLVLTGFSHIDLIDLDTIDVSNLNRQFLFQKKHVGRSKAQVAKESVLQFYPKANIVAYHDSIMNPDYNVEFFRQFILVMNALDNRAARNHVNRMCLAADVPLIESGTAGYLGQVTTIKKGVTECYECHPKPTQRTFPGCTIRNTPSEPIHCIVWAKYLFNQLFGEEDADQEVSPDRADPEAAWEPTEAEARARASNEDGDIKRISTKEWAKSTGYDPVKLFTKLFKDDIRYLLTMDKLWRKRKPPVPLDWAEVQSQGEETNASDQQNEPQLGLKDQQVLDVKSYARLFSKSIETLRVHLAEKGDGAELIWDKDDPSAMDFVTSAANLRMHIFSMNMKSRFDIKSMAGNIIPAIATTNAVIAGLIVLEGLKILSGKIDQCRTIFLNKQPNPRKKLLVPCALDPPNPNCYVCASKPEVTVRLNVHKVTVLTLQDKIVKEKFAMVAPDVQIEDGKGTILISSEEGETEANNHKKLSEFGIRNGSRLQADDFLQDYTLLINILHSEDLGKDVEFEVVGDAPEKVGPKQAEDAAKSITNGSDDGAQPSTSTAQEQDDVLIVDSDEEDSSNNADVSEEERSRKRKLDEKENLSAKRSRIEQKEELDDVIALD

[6] = molecular target: T2, Small ubiquitin-related modifier 1 (Homo sapiens, UniProt P63165); test: SUMO1 protein interaction blockers, potency – biochemical, fluorescence polarization, uHTS hits, dose response (AID 624382); format: functional; details: read-out: IC50_Mean
T2 sequence (P63165 whole entry): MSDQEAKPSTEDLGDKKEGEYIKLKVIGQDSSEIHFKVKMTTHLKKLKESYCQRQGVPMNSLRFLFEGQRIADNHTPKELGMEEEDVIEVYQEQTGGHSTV

Streptococcus = test: GAS UMAA2166 growth inhibition – luminescence, BacTiterGlo, counter-screen for streptokinase expression inhibitor project, dose response (AID 1915); format: functional, organism-based;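 further: potency for reduction of bacterial viability or growth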
[7] = test system: Streptococcus sp. 'group A'; test: Streptococcus pyogenes SK(-)GAS viability under kanamycin – luminescence, BacTiterGlo, confirmation, counter-screen for streptokinase expression inhibitor project, dose response (AID 1900); format: functional, organism-based
Prothrombin = Prothrombin (Bos taurus, UniProt P00735); test: thrombin protease inhibitors – biochemical, fluorescence polarization, uHTS hits, dose response (AID 602369); format: functional
SUMO-activating enzyme [8] = molecular target: T1, SUMO-activating enzyme; test: blockers of SAE1/SAE2–UBC9 SUMO transfer – biochemical, HTRF, uHTS, primary screen (AID 2006); format: protein-complex assay
[9] = molecular target: 72 kDa type IV collagenase (Homo sapiens, UniProt P08253); test: Dose Response validation of uHTS RPN11 inhibitor hits using a MMP-2 Fluorescence assay.; format: functional
Chain of 72 kDa type IV collagenase (P08253 whole entry): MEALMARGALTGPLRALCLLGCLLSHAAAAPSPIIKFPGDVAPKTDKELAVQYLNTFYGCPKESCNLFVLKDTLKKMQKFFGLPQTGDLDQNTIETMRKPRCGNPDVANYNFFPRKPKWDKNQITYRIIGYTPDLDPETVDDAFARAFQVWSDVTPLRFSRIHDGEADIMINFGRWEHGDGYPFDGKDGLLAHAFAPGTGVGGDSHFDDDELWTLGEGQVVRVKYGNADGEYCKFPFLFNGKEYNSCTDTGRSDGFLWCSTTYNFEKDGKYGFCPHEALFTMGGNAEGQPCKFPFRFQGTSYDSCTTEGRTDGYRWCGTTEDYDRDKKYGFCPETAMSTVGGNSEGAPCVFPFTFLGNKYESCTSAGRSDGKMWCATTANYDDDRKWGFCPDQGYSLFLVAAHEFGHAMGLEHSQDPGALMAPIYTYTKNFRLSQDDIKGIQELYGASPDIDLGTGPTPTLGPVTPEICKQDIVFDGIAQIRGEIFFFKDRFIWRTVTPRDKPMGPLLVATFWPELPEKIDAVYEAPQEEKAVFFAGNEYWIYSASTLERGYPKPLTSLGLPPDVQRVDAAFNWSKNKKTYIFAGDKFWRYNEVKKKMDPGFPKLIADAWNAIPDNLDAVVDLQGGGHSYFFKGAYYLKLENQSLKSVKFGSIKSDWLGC

[10] = molecular target: T2, Small ubiquitin-related modifier 1; test: SUMO1 protein-protein binding blockers, potency – biochemical, FRET, dose response (AID 624383); format: functional; details: read-out: IC50_Mean
Streptokinase A = molecular target: T3, Streptokinase A (Streptococcus pyogenes serotype M1, UniProt P10520); test: viability-normalized secreted streptokinase activity reduction – plasminogen activation absorbance, OD405, dose response (AID 1914); format: functional, Streptococcus pyogenes M1 GAS;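 further: secreted streptokinase activity via plasminogen activation per viability signal from cell pellet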
T3 sequence (P10520 whole entry): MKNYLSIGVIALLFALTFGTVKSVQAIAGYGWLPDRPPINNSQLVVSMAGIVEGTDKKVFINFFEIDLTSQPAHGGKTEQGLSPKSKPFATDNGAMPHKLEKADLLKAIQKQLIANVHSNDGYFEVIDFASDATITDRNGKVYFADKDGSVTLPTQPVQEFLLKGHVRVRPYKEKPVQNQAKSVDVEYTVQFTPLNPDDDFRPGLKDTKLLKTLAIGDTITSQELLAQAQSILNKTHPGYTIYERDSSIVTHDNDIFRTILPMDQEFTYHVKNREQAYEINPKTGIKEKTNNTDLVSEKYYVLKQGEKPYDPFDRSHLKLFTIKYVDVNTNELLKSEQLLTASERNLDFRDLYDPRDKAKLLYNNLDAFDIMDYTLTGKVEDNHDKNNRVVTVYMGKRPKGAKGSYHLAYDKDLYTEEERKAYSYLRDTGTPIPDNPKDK

[11] = molecular target: 26S proteasome non-ATPase regulatory subunit 14 (Homo sapiens, UniProt O00487); test: inhibition of proteasome subunit RPN11 – biochemical, fluorescence polarization, uHTS hits, confirmation (AID 602368); format: functional
Aurora kinase A = Aurora kinase A (Homo sapiens, UniProt O14965); format: functional;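 further: value from the Navigating the Kinome kinase panel profiling, panel entry STK6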
Chain of Aurora kinase A (O14965 whole entry): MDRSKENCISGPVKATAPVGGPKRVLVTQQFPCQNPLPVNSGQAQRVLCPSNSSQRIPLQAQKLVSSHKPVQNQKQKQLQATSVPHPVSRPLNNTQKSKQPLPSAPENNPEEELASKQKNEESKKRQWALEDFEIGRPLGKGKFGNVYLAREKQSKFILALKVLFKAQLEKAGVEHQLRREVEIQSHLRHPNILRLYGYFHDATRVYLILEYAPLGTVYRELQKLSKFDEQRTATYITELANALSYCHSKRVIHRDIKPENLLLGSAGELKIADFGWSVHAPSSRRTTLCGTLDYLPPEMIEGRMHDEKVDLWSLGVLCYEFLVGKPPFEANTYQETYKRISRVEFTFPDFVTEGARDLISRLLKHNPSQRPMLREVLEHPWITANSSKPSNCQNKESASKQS

[12] = molecular target: Cyclin-dependent kinase 19 (Homo sapiens, UniProt Q9BWU1); test: Navigating the Kinome. Panel member name: CDC2L6; format: functional
Chain of Cyclin-dependent kinase 19 (Q9BWU1 whole entry): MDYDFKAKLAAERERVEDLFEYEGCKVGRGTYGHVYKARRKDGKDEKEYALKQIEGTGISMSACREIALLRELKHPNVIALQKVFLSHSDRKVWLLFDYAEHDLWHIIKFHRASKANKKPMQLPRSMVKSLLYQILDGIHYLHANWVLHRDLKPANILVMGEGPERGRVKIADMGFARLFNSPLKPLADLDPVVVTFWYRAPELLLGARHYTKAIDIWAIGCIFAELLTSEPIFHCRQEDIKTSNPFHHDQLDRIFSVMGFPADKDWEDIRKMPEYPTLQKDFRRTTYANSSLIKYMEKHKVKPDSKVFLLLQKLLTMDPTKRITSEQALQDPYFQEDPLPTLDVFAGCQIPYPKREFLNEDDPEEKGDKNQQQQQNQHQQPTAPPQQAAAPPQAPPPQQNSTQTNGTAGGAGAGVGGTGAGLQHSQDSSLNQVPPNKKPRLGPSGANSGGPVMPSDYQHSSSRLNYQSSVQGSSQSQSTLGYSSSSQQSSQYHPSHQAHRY

Aurora kinase B = Aurora kinase B (Homo sapiens, UniProt Q96GD4); format: functional
Chain of Aurora kinase B (Q96GD4 whole entry): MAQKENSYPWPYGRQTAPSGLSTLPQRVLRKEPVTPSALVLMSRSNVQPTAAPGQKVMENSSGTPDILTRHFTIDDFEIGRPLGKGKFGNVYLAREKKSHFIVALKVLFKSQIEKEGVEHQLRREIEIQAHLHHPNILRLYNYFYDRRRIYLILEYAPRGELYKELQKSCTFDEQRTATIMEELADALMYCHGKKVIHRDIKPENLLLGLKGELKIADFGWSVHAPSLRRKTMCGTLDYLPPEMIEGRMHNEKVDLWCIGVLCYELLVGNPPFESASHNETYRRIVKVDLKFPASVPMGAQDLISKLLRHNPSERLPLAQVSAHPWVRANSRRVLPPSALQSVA

Chain of SRSF protein kinase 1 (Q96SB4 whole entry): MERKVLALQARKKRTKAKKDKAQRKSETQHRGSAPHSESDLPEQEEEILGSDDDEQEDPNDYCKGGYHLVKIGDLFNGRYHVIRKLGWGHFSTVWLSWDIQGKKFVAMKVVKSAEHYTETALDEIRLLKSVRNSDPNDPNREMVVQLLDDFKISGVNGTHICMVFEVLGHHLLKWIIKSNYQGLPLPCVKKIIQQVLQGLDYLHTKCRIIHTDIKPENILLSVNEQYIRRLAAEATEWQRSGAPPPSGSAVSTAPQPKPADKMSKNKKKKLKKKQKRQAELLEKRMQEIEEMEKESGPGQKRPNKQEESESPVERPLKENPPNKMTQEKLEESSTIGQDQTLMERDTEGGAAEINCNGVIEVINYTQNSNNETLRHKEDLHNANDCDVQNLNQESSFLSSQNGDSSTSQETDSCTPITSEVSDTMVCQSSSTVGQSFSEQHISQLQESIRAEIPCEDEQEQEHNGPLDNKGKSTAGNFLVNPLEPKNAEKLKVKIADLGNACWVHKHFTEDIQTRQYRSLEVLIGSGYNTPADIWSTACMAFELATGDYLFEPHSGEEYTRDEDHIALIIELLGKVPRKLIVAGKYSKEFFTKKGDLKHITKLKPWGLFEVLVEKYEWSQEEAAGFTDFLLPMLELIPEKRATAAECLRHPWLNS

Compound: Cc1ccc(C2(c3ccc(C)cc3)CC2C(=O)Nc2ccncc2)cc1 (stereo not given)
- Ki (SRSF protein kinase 1): 2.51 µM (active)
- Ki [1]: > 10 µM (inactive)
- Ki [2]: > 10 µM (inactive)

Compound: CC(C)CN(C(=O)COC(=O)c1cc2ccccc2cc1O)c1c(N)n(Cc2ccccc2)c(=O)[nH]c1=O
- AC50 (DNA topoisomerase): 6.2 µM (active)

Compound: COc1ccc(S(=O)(=O)Nc2cccc3c2O[C@@H](CN(C)S(=O)(=O)c2ccc(OC)cc2)[C@H](C)CN([C@@H](C)CO)C3=O)cc1
- AC50 (INS1): 73.4 µM (active)

Compound: COc1ccc2nc(NC(=O)CCNC(=O)c3ccccc3Cl)sc2c1
- AC50 [3]: 1.53 µM (active)
- AC50 [4]: 8.01 µM (active)

Compound: Sc1nnc(-c2cc(-c3ccccc3)[nH]n2)n1/N=C/c1ccc(Br)s1
- IC50 (SUMO-activating enzyme [5]): 6.99 µM (active)
- IC50 [6]: > 66.6 µM (inactive)
- EC50 (Streptococcus): > 150 µM (not active)
- EC50 [7]: 14.6 µM (active)
- IC50 (Prothrombin): 32.9 µM (active)
- IC50 (SUMO-activating enzyme [8]): 10.3 µM (active)
- IC50 [9]: > 100 µM (inactive)
- IC50 [10]: 7.25 µM (active)
- EC50 (Streptokinase A): > 150 µM (not active)
- IC50 [11]: 14.5 µM (active)

Compound: Cc1oc2ncnc(N)c2c1-c1ccc(NC(=O)Nc2cccc(C(F)(F)F)c2)cc1
- Ki (Aurora kinase A): 0.0794 µM (active)
- Ki [12]: 3.98 µM (active)
- Ki (Aurora kinase B): 0.0126 µM (active)
